Data reported in patent US10633419B2, “Immunomodulators” (BRISTOL-MYERS SQUIBB COMPANY, priority 2014, dated 2020).
pIC50: −log10 of the molar value. Positions of bridges follow the written chain, without caps; N, C: chain ends. Non-standard residues stand in square brackets, D forms with d. Residues, ends and D or L forms follow the SMILES beside them. ξ: configuration not given here. *: point of attachment. εLys(α-Octadecanedioyl) = O=C(O)CCCCCCCCCCCCCCCCC(=O)N[C@@H](CCCCN*)C(=O)O; Dap(Nα-HOOC(CH2)16CO)OH = O=C(O)CCCCCCCCCCCCCCCCC(=O)N[C@@H](CN*)C(=O)O; X18 = O=C(O)CCCCCCCCCCCCCCC(=O)N[C@@H](CC(=O)NCCCOCCOCCOCCCN*)C(=O)O; Trp(1-CH2COOH) = N[C@@H](Cc1cn(CC(=O)O)c2ccccc12)C(=O)O; X14 = O=C(O)CCCCCCCCCCNC(=O)CCC(=O)NCCCOCCOCCOCCCN*; Phe(3,4,5-F3) = N[C@@H](Cc1cc(F)c(F)c(F)c1)C(=O)O; NH(CH2)16COOH = O=C(O)CCCCCCCCCCCCCCCCN*; C16 diacid = O=C(O)CCCCCCCCCCCCCCC(=O)*; d(cisHyp) = O=C(O)[C@H]1C[C@@H](O)CN1; PEG6 = NCCOCCOCCOCCOCCOCCOCCC(=O)O; Hyp = O=C(O)[C@@H]1C[C@@H](O)CN1; NHhexadecyl = CCCCCCCCCCCCCCCCN*; NMeF = CN[C@@H](Cc1ccccc1)C(=O)O; Myristoyl = CCCCCCCCCCCCCC(=O)*; NMeE = CN[C@@H](CCC(=O)O)C(=O)O; dHyp = O=C(O)[C@H]1C[C@H](O)CN1; NMeNle = CCCC[C@H](NC)C(=O)O; NMeA = CN[C@@H](C)C(=O)O; Dab = NCC[C@H](N)C(=O)O; Dap = NC[C@H](N)C(=O)O; ξC = NC(CS)C(=O)O

molecular target: T1, PD-L1 (Homo sapiens, UniProt Q9NZQ7); test: PD-1/PD-L1 Homogenous Time-Resolved Fluorescence (HTRF) binding assay (PD-1-Ig/PD-L1-His); conditions: inhibition of PD-1-Ig binding to PD-L1-TVMV-His; value given as number; read-out: HTRF IC50
T1 construct: hPDL1(19-239)-TVMV-His; made in house; host or cells: HEK293T
In short: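 Inhibitors pre-incubated 15 min with PD-L1-His (10 nM final), then PD-1-Ig (20 nM final) added for 15 min in dPBS/0.1% BSA/0.05% Tween-20. Eu-cryptate anti-Ig (1 nM) and APC anti-His (20 nM) added, 30 min equilibration, 665/620 nm HTRF ratio read.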

T1 sequence (Q9NZQ7 with tags, fused parts or gaps): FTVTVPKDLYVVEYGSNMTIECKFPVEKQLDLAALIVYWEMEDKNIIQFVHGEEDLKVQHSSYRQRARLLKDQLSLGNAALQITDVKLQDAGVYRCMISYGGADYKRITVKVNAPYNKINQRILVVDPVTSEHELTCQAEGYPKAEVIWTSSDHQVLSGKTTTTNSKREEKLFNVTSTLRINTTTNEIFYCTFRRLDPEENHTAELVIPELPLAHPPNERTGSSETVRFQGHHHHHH

`CCCC[C@H]1C(=O)N(C)[C@@H](CCCC)C(=O)N[C@@H](CC(C)C)C(=O)N[C@H](C(=O)NCC(=O)N[C@@H](Cc2cn(CCOCCOCCOCCOCCOCCOCCOCCOCCOCCOCCOCCNC(=O)C[C@H](NC(=O)CCCCCCCCCCCCCCCCC(=O)O)C(=O)O)nn2)C(=O)O)CSCC(=O)N[C@@H](Cc2ccc(O)cc2)C(=O)N(C)[C@@H](C)C(=O)N[C@@H](CC(N)=O)C(=O)N2CCC[C@H]2C(=O)N[C@@H](CN)C(=O)N[C@@H](CC(C)C)C(=O)N2C[C@H](O)C[C@H]2C(=O)N[C@@H](Cc2c[nH]c3ccccc23)C(=O)N[C@@H](CCN)C(=O)N[C@@H](Cc2cn(CC(=O)O)c3ccccc23)C(=O)N1C` [Example 14103] and `CCCC[C@H]1C(=O)N(C)[C@@H](CCCC)C(=O)N[C@@H](CC(C)C)C(=O)N[C@H](C(=O)NCC(=O)N[C@@H](CC(=O)O)C(=O)N[C@@H](CC(=O)NCCCOCCOCCOCCCNC(=O)C[C@H](NC(=O)CCCCCCCCCCCCCCC(=O)O)C(=O)O)C(=O)O)CSCC(=O)N[C@@H](Cc2ccc(O)cc2)C(=O)N(C)[C@@H](C)C(=O)N[C@@H](CC(N)=O)C(=O)N2CCC[C@@H]2C(=O)N[C@@H](CN)C(=O)N[C@@H](CC(C)C)C(=O)N2C[C@@H](O)C[C@@H]2C(=O)N[C@@H](Cc2c[nH]c3ccccc23)C(=O)N[C@@H](CCN)C(=O)N[C@@H](Cc2cn(CC(=O)O)c3ccccc23)C(=O)N1C` [Example 11240] ({CH2CO}-Y[NMeA]N[dP][Dap]L[dHyp]W[Dab][Trp(1-CH2COOH)][NMeNle][NMeNle]LCGDD(X18)-OH; thioether N-14) are within 0.2 log units of each other in pIC50: 7.85 for the first, 8.00 for the second.

same assay, conditions: inhibition of PD-1-Ig binding to PD-L1-TVMV-His; value given as range class; read-out: HTRF IC50

First: CCCC[C@H]1C(=O)N(C)[C@@H](CCCC)C(=O)N[C@@H](CCCNC(=N)N)C(=O)N[C@H](C(=O)NCC(=O)N[C@@H](CCn2cc(CNC(=O)COCCOCCOC)nn2)C(N)=O)CSCC(=O)N[C@@H](Cc2ccc(O)cc2)C(=O)N(C)[C@@H](C)C(=O)N[C@@H](CC(N)=O)C(=O)N2CCC[C@H]2C(=O)N[C@@H](CN)C(=O)N[C@@H](CC(C)C)C(=O)N2C[C@H](O)C[C@H]2C(=O)N[C@@H](Cc2c[nH]c3ccccc23)C(=O)N[C@@H](CO)C(=O)N[C@@H](Cc2csc3ccccc23)C(=O)N1C [Example 13052]
Second: CCCCCCCCCCCCCCCCNC(=O)CNC(=O)CNC(=O)[C@@H]1CSCC(=O)N[C@@H](Cc2ccc(O)cc2)C(=O)N(C)[C@@H](C)C(=O)N[C@@H](CC(N)=O)C(=O)N2CCC[C@H]2C(=O)N[C@@H](CCC(=O)O)C(=O)N[C@@H](CC(C)C)C(=O)N2C[C@H](O)C[C@H]2C(=O)N[C@@H](Cc2c[nH]c3ccccc23)C(=O)N[C@@H](CO)C(=O)N[C@@H](Cc2c[nH]c3ccccc23)C(=O)N(C)[C@@H](CCCC)C(=O)N(C)[C@@H](CCCC)C(=O)N[C@@H](CCCNC(=N)N)C(=O)N1 [Example 11109] ({CH2CO}-Y[NMeA]NPEL[Hyp]WSW[NMeNle][NMeNle]RCGG-NHhexadecyl; thioether N-14)
The pIC50 of the first is higher: 7.00 to 8.00 for the first, 5.80 to 7.00 for the second.

First: CCCC[C@H]1C(=O)N(C)[C@@H](CCCC)C(=O)N[C@@H](CC(C)C)C(=O)N[C@H](C(=O)NCC(=O)N[C@@H](Cc2cn(CCOCCOCCOCCOCCOCCOCCOCCOCCOCCOCCOCCNC(=O)CCCNC(=O)CCCCCCCCCCCCCCCCC(=O)O)nn2)C(=O)O)CSCC(=O)N[C@@H](Cc2ccc(O)cc2)C(=O)N(C)[C@@H](C)C(=O)N[C@@H](CC(N)=O)C(=O)N2CCC[C@H]2C(=O)N[C@@H](CN)C(=O)N[C@@H](CC(C)C)C(=O)N2C[C@H](O)C[C@H]2C(=O)N[C@@H](Cc2c[nH]c3ccccc23)C(=O)N[C@@H](CCN)C(=O)N[C@@H](Cc2cn(CC(=O)O)c3ccccc23)C(=O)N1C [Example 14125]
Second: CCCC[C@H]1C(=O)N(C)[C@@H](CCCC)C(=O)N[C@@H](CC(C)C)C(=O)N[C@H](C(=O)NCC(=O)N[C@@H](CC(=O)NCCCC[C@H](NC(=O)CCCCCCCCCCCCCCCCC(=O)O)C(=O)O)C(=O)O)CSCC(=O)N[C@@H](Cc2ccc(O)cc2)C(=O)N(C)[C@@H](C)C(=O)N[C@@H](CC(N)=O)C(=O)N2CCC[C@H]2C(=O)N[C@@H](CN)C(=O)N[C@@H](CC(C)C)C(=O)N2C[C@H](O)C[C@H]2C(=O)N[C@@H](Cc2c[nH]c3ccccc23)C(=O)N[C@@H](CCN)C(=O)N[C@@H](Cc2cn(CC(=O)O)c3ccccc23)C(=O)N1C [Example 11176] ({CH2CO}-Y[NMeA]NP[Dap]L[Hyp]W[Dab][Trp(1-CH2COOH)][NMeNle][NMeNle]LCGD(εLys(α-Octadecanedioyl))-OH; thioether N-14)
The pIC50 of the first is higher: 8.00 to 9.52 for the first, 7.00 to 8.00 for the second.

First: CCCC[C@H]1C(=O)N2C[C@H](O)C[C@@H]2C(=O)N[C@@H](CC(=O)O)C(=O)N[C@@H](C(C)C)C(=O)N(C)[C@@H](Cc2ccccc2)C(=O)N[C@@H](Cc2ccc(O)cc2)C(=O)N(C)[C@@H](CCC(=O)O)C(=O)N[C@@H](Cc2c[nH]c3ccccc23)C(=O)N[C@@H](Cc2ccc(O)cc2)C(=O)N[C@@H](CC(C)C)C(=O)N[C@H](C(=O)NCC(=O)NCC(=O)NCC(=O)N[C@@H](CCCCN)C(N)=O)CSCC(=O)N[C@@H](Cc2cc(F)c(F)c(F)c2)C(=O)N(C)[C@@H](Cc2ccccc2)C(=O)N1C [Example 3214] ({CH2CO}-[Phe(3,4,5-F3)][NMeF][NMeNle][d(cisHyp)]DV[NMeF]Y[NMeE]WYLCGGGK-NH2; thioether N-13)
Second: CCCC[C@H]1C(=O)N(C)[C@@H](CCCC)C(=O)N[C@@H](CC(C)C)C(=O)N[C@H](C(=O)NCC(=O)NCC(=O)NCCCCCCCCCCCCCCCCC(=O)O)CSCC(=O)N[C@@H](Cc2ccc(O)cc2)C(=O)N(C)[C@@H](C)C(=O)N[C@@H](CC(N)=O)C(=O)N2CCC[C@H]2C(=O)N[C@@H](CN)C(=O)N[C@@H](CC(C)C)C(=O)N2C[C@H](O)C[C@H]2C(=O)N[C@@H](Cc2c[nH]c3ccccc23)C(=O)N[C@@H](CCN)C(=O)N[C@@H](Cc2cn(CC(=O)O)c3ccccc23)C(=O)N1C [Example 11189] ({CH2CO}-Y[NMeA]NP[Dap]L[Hyp]W[Dab][Trp(1-CH2COOH)][NMeNle][NMeNle]LCGG-{NH(CH2)16COOH}; thioether N-14)
The pIC50 of the first is higher: 8.00 to 9.52 for the first, 5.80 to 7.00 for the second.

`CCCC[C@H]1C(=O)N(C)[C@@H](CCCC)C(=O)N[C@@H](CCC(=O)O)C(=O)N[C@H](C(=O)NCC(=O)N[C@@H](Cc2cn(CC[C@H](NC(=O)CCCCCCCCCCCCCCCCC(=O)O)C(=O)O)nn2)C(=O)O)CSCC(=O)N[C@@H](Cc2ccc(OC)cc2)C(=O)N2CCCC[C@H]2C(=O)N[C@@H](CC(=O)O)C(=O)N2CCC[C@H]2C(=O)N[C@@H](CN)C(=O)N[C@@H](CCC(N)=O)C(=O)N2C[C@H](O)C[C@H]2C(=O)N[C@@H](Cc2c[nH]c3ccccc23)C(=O)N[C@@H](CCN)C(=O)N[C@@H](Cc2cn(CC(=O)O)c3ccccc23)C(=O)N1C` [Example 14121] and `CCCC[C@H]1C(=O)N(C)[C@@H](CCCC)C(=O)N[C@@H](CC(C)C)C(=O)N[C@H](C(=O)NCC(=O)N[C@@H](CC(=O)NC[C@H](NC(=O)CCCCCCCCCCCCCCCCC(=O)O)C(=O)O)C(=O)O)CSCC(=O)N[C@@H](Cc2ccc(O)cc2)C(=O)N(C)[C@@H](C)C(=O)N[C@@H](CC(N)=O)C(=O)N2CCC[C@H]2C(=O)N[C@@H](CN)C(=O)N[C@@H](CC(C)C)C(=O)N2C[C@H](O)C[C@H]2C(=O)N[C@@H](Cc2c[nH]c3ccccc23)C(=O)N[C@@H](CCN)C(=O)N[C@@H](Cc2cn(CC(=O)O)c3ccccc23)C(=O)N1C` [Example 11172] ({CH2CO}-Y[NMeA]NP[Dap]L[Hyp]W[Dab][Trp(1-CH2COOH)][NMeNle][NMeNle]LCGD(Dap(Nα-HOOC(CH2)16CO)OH)-OH; thioether N-14) fall in the same range of pIC50: 7.00 to 8.00 for the first, 7.00 to 8.00 for the second.

`CCCC[C@H]1C(=O)N(C)[C@@H](CCCC)C(=O)N[C@@H](CCCNC(=N)N)C(=O)N[C@H](C(=O)NCC(=O)NCC(=O)N[C@@H](CC(=O)O)C(=O)N[C@@H](CCCCNC(=O)CCCCCCCCCCCCCCC(=O)O)C(N)=O)CSCC(=O)N[C@@H](Cc2ccc(O)cc2)C(=O)N(C)[C@@H](C)C(=O)N[C@@H](CC(=O)O)C(=O)N2CCC[C@H]2C(=O)N[C@@H](Cc2cnc[nH]2)C(=O)N[C@@H](CC(C)C)C(=O)N2C[C@H](O)C[C@H]2C(=O)N[C@@H](Cc2c[nH]c3ccccc23)C(=O)N[C@@H](CO)C(=O)N[C@@H](Cc2c[nH]c3ccccc23)C(=O)N1C` [Example 11126] ({CH2CO}-Y[NMeA]DPHL[Hyp]WSW[NMeNle][NMeNle]RCGGDK(C16 diacid)-NH2; thioether N-14) and `CCCCCCCCCCCCCC(=O)NCCCC[C@H](NC(=O)CCOCCOCCOCCOCCOCCOCCNC(=O)CNC(=O)C1CSCC(=O)N[C@@H](Cc2ccc(O)cc2)C(=O)N(C)[C@@H](C)C(=O)N[C@@H](CC(=O)O)C(=O)N2CCC[C@H]2C(=O)N[C@@H](Cc2cnc[nH]2)C(=O)N[C@@H](CC(C)C)C(=O)N2C[C@H](O)C[C@H]2C(=O)N[C@@H](Cc2c[nH]c3ccccc23)C(=O)N[C@@H](CO)C(=O)N[C@@H](Cc2c[nH]c3ccccc23)C(=O)N(C)[C@@H](CCCC)C(=O)N(C)[C@@H](CCCC)C(=O)N[C@@H](CCCNC(=N)N)C(=O)N1)C(N)=O` (stereo partly shown) [Example 11015] ({CH2CO}-Y[NMeA]DPHL[Hyp]WSW[NMeNle][NMeNle]R[ξC]G[PEG6]K(Myristoyl)-NH2; thioether N-14) fall in the same range of pIC50: 7.00 to 8.00 for the first, 7.00 to 8.00 for the second.

Work on `CCCC[C@H]1C(=O)N(C)[C@@H](CCCC)C(=O)N[C@@H](CC(C)C)C(=O)N[C@H](C(=O)NCCCOCCOCCOCCCNC(=O)CCC(=O)NCCCCCCCCCCC(=O)O)CSCC(=O)N[C@@H](Cc2ccc(O)cc2)C(=O)N(C)[C@@H](C)C(=O)N[C@@H](CCC(=O)O)C(=O)N2CCC[C@H]2C(=O)N[C@@H](Cc2cnc[nH]2)C(=O)N[C@@H](CCCCN)C(=O)N2C[C@H](O)C[C@H]2C(=O)N[C@@H](Cc2c[nH]c3ccccc23)C(=O)N[C@@H](CCCCN)C(=O)N[C@@H](Cc2cn(CC(=O)O)c3ccccc23)C(=O)N1C` [Example 11139] ({CH2CO}-Y[NMeA]EPHK[Hyp]WK[Trp(1-CH2COOH)][NMeNle][NMeNle]LC-X14; thioether N-14) yielded a pIC50 of 7.00 to 8.00.
